Measured values published in patent US11564394B2, “Distorted gold (I)-phosphine complexes and methods for use as antifungal agents” (University of Kentucky Research Foundation, priority 2019, dated 2023).

Columns and labels:
[1] = tested on: C. albicans ATCC MYA-1003(R) (strain A); type: cell-based, Candida albicans; conditions: strain A = C. albicans ATCC MYA-1003(R); MIC-0; 48 h at 35° C.
[2] = tested on: C. albicans ATCC 10231(R) (strain B); type: cell-based, Candida albicans
[3] = tested on: C. albicans ATCC MYA-1237(R) (strain C); type: cell-based, Candida albicans; conditions: strain C = C. albicans ATCC MYA-1237(R); MIC-0; 48 h; listed as printed beside letter D
[4] = tested on: C. albicans ATCC MYA-2310(S) (strain D); assay: MIC determination (broth microdilution); type: cell-based, Candida albicans; conditions: strain D = C. albicans ATCC MYA-2310(S); MIC-0; 48 h; listed as printed beside letter E
[5] = tested on: C. albicans ATCC MYA-2876(S) (strain E); assay: MIC determination (broth microdilution); type: cell-based, Candida albicans; conditions: strain E = C. albicans ATCC MYA-2876(S); MIC-0; 48 h; listed as printed beside letter F
[6] = tested on: C. albicans ATCC 64124(R) (strain F); type: cell-based, Candida albicans; conditions: strain F = C. albicans ATCC 64124(R); MIC-0; 48 h; listed as printed beside letter G
[7] = tested on: C. albicans ATCC 90819(R) (strain G); type: cell-based, Candida albicans; conditions: strain G = C. albicans ATCC 90819(R); MIC-0; 48 h; listed as printed without letter, below G
[8] = tested on: C. glabrata ATCC 2001 (strain H); assay: MIC determination (broth microdilution); type: cell-based, Candida glabrata; conditions: strain H = C. glabrata ATCC 2001; MIC-0; 48 h at 35° C.
[9] = tested on: C. krusei ATCC 6258 (strain I); assay: MIC determination (broth microdilution); type: cell-based; conditions: strain I = C. krusei ATCC 6258; MIC-0; 48 h; listed as split over r16 and r17 (r17 printed beside letter J)
[10] = tested on: C. parapsilosis ATCC 22019 (strain J); assay: MIC determination (broth microdilution); type: cell-based; conditions: strain J = C. parapsilosis ATCC 22019; MIC-0; 48 h; listed as printed beside letter K
[11] = tested on: C. auris AR Bank # 0384 (strain K); assay: MIC determination (broth microdilution); type: cell-based, Candida auris; conditions: strain K = C. auris AR Bank # 0384; MIC-0; 48 h (CAS read at 24 h); Table 1; also in Table 2
[12] = tested on: C. auris AR Bank # 0390 (strain L); assay: MIC determination (broth microdilution); type: cell-based, Candida auris; conditions: strain L = C. auris AR Bank # 0390; MIC-0; 48 h (CAS read at 24 h); Table 1 row printed without letter, below L; also in Table 2
[13] = tested on: C. neoformans ATCC MYA-85 (strain M); assay: MIC determination (broth microdilution); type: cell-based, Cryptococcus neoformans; conditions: strain M = C. neoformans ATCC MYA-85; MIC-0; 72 h at 35° C.
[14] = tested on: C. neoformans CN1 (strain N); assay: MIC determination (broth microdilution); type: cell-based, Cryptococcus neoformans; conditions: MIC-0, 72 h at 35° C.
[15] = tested on: C. neoformans CN2 (strain O); assay: MIC determination (broth microdilution); type: cell-based, Cryptococcus neoformans; conditions: MIC-0, 72 h at 35° C.
[16] = tested on: C. neoformans CN3 (strain P); assay: MIC determination (broth microdilution); type: cell-based, Cryptococcus neoformans; conditions: MIC-0, 72 h at 35° C.
[17] = tested on: A. nidulans ATCC 38163 (strain Q); assay: MIC determination (broth microdilution); type: cell-based, Aspergillus nidulans; conditions: strain Q = A. nidulans ATCC 38163; MIC-0; 72 h at 35° C.
[18] = tested on: A. terreus ATCC MYA-3633 (strain R); type: cell-based, Aspergillus terreus; conditions: strain R = A. terreus ATCC MYA-3633; MIC-0; 72 h at 35° C.
[19] = tested on: A. flavus ATCC MYA-3631 (strain S); assay: MIC determination (broth microdilution); type: cell-based, Aspergillus flavus; conditions: strain S = A. flavus ATCC MYA-3631; MIC-0; 72 h at 35° C.
[20] = tested on: F. graminearum 053 (strain T); type: cell-based, Fusarium graminearum; conditions: strain T = F. graminearum 053; MIC-0; room temperature, 5 days
[21] = tested on: fungal strains (Candida spp., Cryptococcus spp., Aspergillus spp., Fusarium spp.); assay: MIC determination, summary statements over the strain panel; type: cell-based; conditions: for antifungal activity: Aspergillus spp., Fusarium spp. and most of the non-albicans Candida strains; for overall assessment as antifungals: panel of twenty fungal strains (Table 1)

[Cl][Au-][P+](c1ccccc1)(c1ccccc1)c1ccccc1[P+]([Au-][Cl])(c1ccccc1)c1ccccc1 [Compound 1, [1,2-bis(diphenylphosphino)benzene]digold(I)]
MIC [1]: 3.9 µg/mL
MIC (in parentheses) [1]: 4.3 µM
MIC [2]: 15.6 (17.1) μg/mL
MIC (in parentheses) [2]: 15.6 (17.1) μM
MIC [3]: 0.49 µg/mL
MIC (in parentheses) [3]: 5.4 µM
MIC [4]: 7.8 µg/mL
MIC (in parentheses) [4]: 8.6 µM
MIC [5]: 7.8 µg/mL
MIC (in parentheses) [5]: 8.6 µM
MIC [6]: 7.8 µg/mL
MIC (in parentheses) [6]: 8.6 µM
MIC [7]: 7.8 µg/mL
MIC (in parentheses) [7]: 8.6 µM
MIC [8]: 7.8 µg/mL
MIC (in parentheses) [8]: 8.6 µM
MIC [9]: 15.6 µg/mL
MIC (in parentheses) [9]: 17.1 µM
MIC [10]: 15.6 µg/mL
MIC (in parentheses) [10]: 17.1 µM
MIC [11]: > 31.3 µg/mL
MIC (in parentheses) [11]: > 34.3 µM
MIC [12]: > 31.3 µg/mL
MIC (in parentheses) [12]: > 34.3 µM
MIC [13]: 0.98 µg/mL
MIC (in parentheses) [13]: 1.1 µM
MIC [14]: 3.9 µg/mL
MIC (in parentheses) [14]: 4.3 µM
MIC [15]: 3.9 µg/mL
MIC (in parentheses) [15]: 4.3 µM
MIC [16]: 15.6 µg/mL
MIC (in parentheses) [16]: 17.1 µM
MIC [17]: > 31.3 µg/mL
MIC (in parentheses) [17]: > 34.3 µM
MIC [18]: > 31.3 µg/mL
MIC (in parentheses) [18]: > 34.3 µM
MIC [19]: > 31.3 µg/mL
MIC (in parentheses) [19]: > 34.3 µM
MIC [20]: > 31.3 µg/mL
MIC (in parentheses) [20]: > 34.3 µM
antifungal activity [21]: inactive
overall assessment as antifungals [21]: poor antifungals

[Cl-].c1ccc([P+]2(c3ccccc3)c3ccccc3[P+](c3ccccc3)(c3ccccc3)[Au-3]23[P+](c2ccccc2)(c2ccccc2)c2ccccc2[P+]3(c2ccccc2)c2ccccc2)cc1 [Compound 2, bis-[1,2-bis(diphenylphosphino)benzene]gold(1)]
MIC [1]: 15.6 µg/mL
MIC (in parentheses) [1]: 13.9 µM
MIC [2]: 15.6 (13.9) μg/mL
MIC (in parentheses) [2]: 15.6 (13.9) μM
MIC [3]: 15.6 µg/mL
MIC (in parentheses) [3]: 13.9 µM
MIC [4]: 7.8 µg/mL
MIC (in parentheses) [4]: 6.9 µM
MIC [5]: 7.8 µg/mL
MIC (in parentheses) [5]: 6.9 µM
MIC [6]: 7.8 µg/mL
MIC (in parentheses) [6]: 6.9 µM
MIC [7]: 7.8 µg/mL
MIC (in parentheses) [7]: 6.9 µM
MIC [8]: 7.8 µg/mL
MIC (in parentheses) [8]: 6.9 µM
MIC [9]: 15.6 µg/mL
MIC (in parentheses) [9]: 13.9 µM
MIC [10]: 7.8 µg/mL
MIC (in parentheses) [10]: 6.9 µM
MIC [11]: > 31.3 µg/mL
MIC (in parentheses) [11]: > 27.8 µM
MIC [12]: > 31.3 µg/mL
MIC (in parentheses) [12]: > 27.8 µM
MIC [13]: 3.9 µg/mL
MIC (in parentheses) [13]: 3.5 µM
MIC [14]: 3.9 µg/mL
MIC (in parentheses) [14]: 3.5 µM
MIC [15]: 3.9 µg/mL
MIC (in parentheses) [15]: 3.5 µM
MIC [16]: 3.9 µg/mL
MIC (in parentheses) [16]: 3.5 µM
MIC [17]: > 31.3 µg/mL
MIC (in parentheses) [17]: > 27.8 µM
MIC [18]: > 31.3 µg/mL
MIC (in parentheses) [18]: > 27.8 µM
MIC [19]: > 31.3 µg/mL
MIC (in parentheses) [19]: > 27.8 µM
MIC [20]: 31.3 µg/mL
MIC (in parentheses) [20]: 27.8 µM
antifungal activity [21]: inactive
overall assessment as antifungals [21]: poor antifungals
